In ChEMBL document CHEMBL1148196, “Isoprenoids of the soft coral Sarcophyton glaucum: Nyalolide, a new biscembranoid, and other terpenoids” (2004):

Key:
Assay type in all cases: functional
P388 = assay: Cytotoxicity against mouse P388 cells
A549 = assay: Cytotoxicity against human A549 cells
HT-29 = assay: Cytotoxicity against human HT29 cells
SK-MEL-28 = assay: Cytotoxicity against human SK-MEL-28 cells

Measured: GI50

COC(=O)/C1=C\CC/C(C)=C/[C@@H]2OC(=O)C(C)=C2C[C@H](OC(C)=O)/C(C)=C/CC1
10 µM: all assays above

COC(=O)[C@]12CC(=O)[C@H](C(C)C)CC(=O)[C@H](C)CCC[C@H](C)CC(=O)[C@H]1CC(C)=C1C[C@H](OC(C)=O)[C@](C)(O)[C@H]3CC[C@@](C)(O)[C@H](CC/C(C)=C/[C@@H]12)O3 [NYALOLIDE]
10 µM: all assays above

CC(C)=C1C=C2[C@@H](CC[C@@H]2C)[C@@H](C)CC1=O [GUAIACOPHINE]
10 µM: all assays above
